Data: US7468375B2 (Pfizer Inc., priority 2004, dated 2008)
Where two headings read alike, the source gives them in different places.

Columns and labels:
[1] = tested on: RF strain of HIV-1 in CEM-SS cells; test: HIV-1 cell protection assay (XTT dye reduction); format: cell-based; conditions: HIV-1 RF, CEM-SS cells, XTT dye reduction, six days, read-out: EC50
Outline: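 CEM-SS cells infected with HIV-1 RF (moi 0.025–0.819) or mock-infected, 2×10^4 cells/well with half-log compound dilutions for six days. Viability by XTT/PMS reduction (4 h), absorbance 450 nm, as % of uninfected untreated cells. Therapeutic index = CC50/EC50.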

[2] = molecular target: T1, Full-length wild type HIV-1 integrase (SF1) (Human immunodeficiency virus type 1 group M subtype B, UniProt P04585); test: Integrase strand-transfer scintillation proximity assay; format: biochemical; conditions: strand transfer, 50 min at 37° C., 246 nM integrase, 50 nM host DNA; read-out: IC50
T1 construct: made in house; host or cells: E. coli BL21 (DE3)
Description: Integrase Strand-Transfer Scintillation Proximity Assay Oligonucleotides
Oligonucleotide #1-5′-(biotin)[…]-3′ (SEQ ID NO: 1) and oligonucleotide #2-5′-[…]-3′ (SEQ ID NO: 2), were synthesized by TriLink BioTechnologies, Inc. (San Diego, Calif.). The annealed product represents preprocessed viral ds-DNA derived from the LTR U5 sequence of the viral genome. A ds-DNA control to test for non-specific interactions was made using a 3′ di-deoxy derivative of oligonucleotide #1 annealed to oligonucleotide #2. The CA overhang at the 5′ end of the non-biotinylated strand of the ds-DNA was created artificially by using a complimentary DNA oligonucleotide shortened by 2 base pairs. This configuration eliminates the requisite 3′ processing step of the integrase enzyme prior to the strand-transfer mechanism. Host ds-DNA was prepared as an unlabeled and [^3H]-thymidine labeled product from annealed oligonucleotide #3-5-[…]-3′ (SEQ ID NO: 3), and oligonucleotide #4-5′-[…]-3′ (SEQ ID NO: 4), both synthesized by TriLink BioTechnologies, Inc. (San Diego, Calif.). The annealed product had overhanging 3′ ends of poly(dA). Host DNA was custom radiolabeled by PerkinElmer Life Sciences Inc. (Boston, Mass.) using an enzymatic method with a 12/1 ratio of [methyl-3H]dTTP/cold ds-DNA to yield 5′-blunt end ds-DNA with a specific activity of >900 Ci/mmol. The radiolabeled product was purified using a NENSORB cartridge and stored in stabilized aqueous solution (PerkinElmer). The final radiolabeled product had six [^3H]-thymidine nucleotides at both 5′ ends of the host ds-DNA. Reagents: Streptavidin-coated polyvinyltoluene (PVT) SPA beads were purchased from Amersham Biosciences (Piscataway, N.J.). Cesium chloride was purchased from Shelton Scientific, Inc. (Shelton, Conn.). White, polystyrene, flat-bottom, non-binding surface, 96-well plates were purchased from Corning. All other buffer components were purchased from Sigma (St. Louis, Mo.) unless otherwise indicated.
Enzyme Construction: Full-length wild type HIV-1 integrase (SF1) sequence (amino acids 1-288) was constructed in a pET24a vector (Novagen, Madison, Wis.). The construct was confirmed through DNA sequencing. Enzyme Purification: Full length wild-type HIV Integrase was expressed in E. coli BL21 (DE3) cells and induced with 1 mM isopropyl-1 thio-β-D-galactopyranoside (IPTG) when cells reached an optical density between 0.8-1.0 at 600 nm. Cells were lysed by microfluidation in 50 mM HEPES pH 7.0, 75 mM NaCl, 5 mM DTT, 1 mM 4-(2-Aminoethyl)benzenesulfonylfluoride HCl (AEBSF). Lysate was then centrifuged 20 minutes at 11 k rpm in GSA rotor in Sorvall RC-5B at 4° C. Supernant was discarded and pellet resuspended in 50 mM HEPES pH 7.0, 750 mM NaCl, 5 mM DTT, 1 mM AEBSF and homogenized in a 40 mL Dounce homogenizer for 20 minutes on ice. Homogenate was then centrifuged 20 minutes at 11 k rpm in SS34 rotor in Sorvall RC-5B at 4° C. Supernant was discarded and pellet resuspended in 50 mM HEPES pH 7.0, 750 mM NaCl, 25 mM CHAPS, 5 mM DTT, 1 mM AEBSF. Preparation was then centrifuged 20 minutes at 11 k rpm in SS34 rotor in Sorvall RC-5B at 4° C. Supernant was then diluted 1:1 with 50 mM HEPES pH 7.0, 25 mM CHAPS, 1 mM DTT, 1 mM AEBSF and loaded onto a Q-Sepharose column pre-equilibrated with 50 mM HEPES, pH 7.0, 375 mM NaCl, 25 mM CHAPS, 1 mM DTT, 1 mM AEBSF. The flow through peak was collected and NaCl diluted to 0.1 M with 50 mM HEPES pH 7.0, 25 mM CHAPS, 1 mM DTT, 0.5 mM AEBSF and loaded onto a SP-Sepharose column pre-equilibrated with 50 mM HEPES pH 7.0, 100 mM NaCl, 25 mM CHAPS, 1 mM DTT, 0.5 mM AEBSF. After washing the column with the equilibration buffer, a 100 to 400 mM NaCl gradient was run. The eluted integrase was concentrated and run on a S-300 gel diffusion column using 50 mM HEPES pH 7.0, 500 mM NaCl, 25 mM CHAPS, 1 mM DTT, 0.5 mM AEBSF. The peak from this column was concentrated to 0.76 mg/mL and stored at −70° C. and later used for strand transfer assays. […]

[3] = Human immunodeficiency virus 1, CEM-SS, 144 h

SMILES	EC50 [1, 3]	IC50 [2]	EC50 [1]
CONC(=O)c1ncc2c(ccn2Cc2ccc(F)cc2)c1O [Example 43, 1-(4-Fluorobenzyl)-4-hydroxy-N-methoxy-1H-pyrrolo[2,3-c]pyridine-5-carboxamide]	420 nM	371 nM	–
COc1c(C(=O)N(C)O)ncc2c1ccn2Cc1ccc(F)cc1 [Example 44, 1-(4-Fluorobenzyl)-N-hydroxy-4-methoxy-N-methyl-1H-pyrrolo[2,3-c]pyridine-5-carboxamide]	1200 nM	2250 nM	–
CCN1CCCC1CNCc1cn(Cc2ccc(F)cc2F)c2cnc(C(=O)NO)cc12 (stereo not drawn) [Example 45, 1-(2,4-Difluorobenzyl)-3-({[(1-ethylpyrrolidin-2-yl)methyl]amino}methyl)-N hydroxy-1H-pyrrolo[2,3-c]pyridine-5-carboxamide]	–	295 nM	51 nM
CCN1CCCC1CNCc1cn(Cc2ccc(F)cc2F)c2cnc(C(=O)NOC)cc12 (stereo not drawn) [Example 46, 1-(2,4-Difluorobenzyl)-3-({[(1-ethylpyrrolidin-2-yl)methyl]amino}methyl)-N-methoxy-1H-pyrrolo[2,3-c]pyridine-5-carboxamide]	130 nM	912 nM	–
CN1CCCC1CCNCc1cn(Cc2ccc(F)cc2F)c2cnc(C(=O)NO)cc12 (stereo not drawn) [Example 51, 1-(2,4-Difluorobenzyl)-N-hydroxy-3-({[2-(1-methylpyrrolidin-2-yl)ethyl]amino}methyl)-1H-pyrrolo[2,3-c]pyridine-5-carboxamide]	230 nM	752 nM	–
CN1CCN(CCCNCc2cn(Cc3ccc(F)cc3F)c3cnc(C(=O)NO)cc23)CC1 [Example 52, 1-(2,4-Difluorobenzyl)-N-hydroxy-3-({[3-(4-methylpiperazin-1-yl)propyl]amino}methyl)-1H-pyrrolo[2,3-c]pyridine-5-carboxamide]	260 nM	781 nM	–
CC(CO)NCc1cn(Cc2ccc(F)cc2F)c2cnc(C(=O)NO)cc12 (stereo not drawn) [Example 53, 1-(2,4-Difluorobenzyl)-N-hydroxy-3-{[(2-hydroxy-1-methylethyl)amino]methyl}-1H-pyrrolo[2,3-c]pyridine-5-carboxamide]	11 nM	359 nM	–
O=C(NO)c1cc2c(CNCCN3CCOCC3)cn(Cc3ccc(F)cc3F)c2cn1 [Example 54]	38 nM	746 nM	–
O=C(NO)c1cc2c(CNCc3ccccn3)cn(Cc3ccc(F)cc3F)c2cn1 [Example 55, 1-(2,4-Difluorobenzyl)-N-hydroxy-3-{[(pyridin-2-ylmethyl)amino]methyl}-1H-pyrrolo[2,3-c]pyridine-5-carboxamide]	20 nM	216 nM	–
O=C(NO)c1cc2c(CNCCc3ccccn3)cn(Cc3ccc(F)cc3F)c2cn1 [Example 56]	11 nM	278 nM	–
O=C(NO)c1cc2c(CNCCN3CCCC3)cn(Cc3ccc(F)cc3F)c2cn1 [Example 57, 1-(2,4-Difluorobenzyl)-N-hydroxy-3-{[(2-pyrrolidin-1-ylethyl)amino]methyl}-1H-pyrrolo[2,3-c]pyridine-5-carboxamide]	24 nM	542 nM	–
O=C(NO)c1cc2c(CNCCOCCO)cn(Cc3ccc(F)cc3F)c2cn1 [Example 58, 1-(2,4-Difluorobenzyl)-N-hydroxy-3-({[2-(2-hydroxyethoxy)ethyl]amino}methyl)-1H-pyrrolo[2,3-c]pyridine-5-carboxamide]	100 nM	585 nM	–
O=C(NO)c1cc2c(CN[C@@H](CO)c3ccccc3)cn(Cc3ccc(F)cc3F)c2cn1 [Example 59, 1-(2,4-Difluorobenzyl)-N-hydroxy-3-({[(1R)-2-hydroxy-1-phenylethyl]amino}methyl)-1H-pyrrolo[2,3-c]pyridine-5-carboxamide]	18 nM	221 nM	–
O=C(NO)c1cc2c(CNCC3CCCO3)cn(Cc3ccc(F)cc3F)c2cn1 (stereo not drawn) [Example 60, 1-(2,4-Difluorobenzyl)-N-hydroxy-3-{[(tetrahydrofuran-2-ylmethyl)amino]methyl}-1H-pyrrolo[2,3-c]pyridine-5-carboxamide]	12 nM	521 nM	–
CN(C)CC(C)(C)CNCc1cn(Cc2ccc(F)cc2F)c2cnc(C(=O)NO)cc12 [Example 61, 1-(2,4-Difluorobenzyl)-3-({[3-(dimethylamino)-2,2-dimethylpropyl]amino}methyl)-N-hydroxy-1H-pyrrolo[2,3-c]pyridine-5-carboxamide]	35 nM	916 nM	–
CCN1CCCC1CNCc1cn(Cc2ccc(F)cc2F)c2cnc(C(=O)NO)cc12 (stereo not drawn) [Example 62, 1-(2,4-Difluorobenzyl)-3-({[(1-ethylpyrrolidin-2-yl)methyl]amino}methyl)-N-hydroxy-1H-pyrrolo[2,3-c]pyridine-5-carboxamide]	–	671 nM	17 nM
CN(CCc1ccccn1)Cc1cn(Cc2ccc(F)cc2F)c2cnc(C(=O)NO)cc12 [Example 63, 1-(2,4-Difluorobenzyl)-N-hydroxy-3-{[methyl(2-pyridin-2-ylethyl)amino]methyl}-1H-pyrrolo[2,3-c]pyridine-5-carboxamide]	16 nM	424 nM	–
O=C(NO)c1cc2c(CN[C@H](CO)Cc3ccccc3)cn(Cc3ccc(F)cc3F)c2cn1 [Example 64, 3-({[(1S)-1-Benzyl-2-hydroxyethyl]amino}methyl)-1-(2,4-difluorobenzyl)-N-hydroxy-1H-pyrrolo[2,3-c]pyridine-5-carboxamide]	17 nM	328 nM	–
CC(O)CNCc1cn(Cc2ccc(F)cc2F)c2cnc(C(=O)NO)cc12 (stereo not drawn) [Example 65, 1-(2,4-Difluorobenzyl)-N-hydroxy-3-{[(2-hydroxypropyl)amino]methyl}-1H-pyrrolo[2,3-c]pyridine-5-carboxamide]	14 nM	625 nM	–
Cc1cnc(CNCc2cn(Cc3ccc(F)cc3F)c3cnc(C(=O)NO)cc23)cn1 [Example 66, 1-(2,4-Difluorobenzyl)-N-hydroxy-3-({[(5-methylpyrazin-2-yl)methyl]amino}methyl)-1H-pyrrolo[2,3-c]pyridine-5-carboxamide]	11 nM	357 nM	–
O=C(NO)c1cc2c(CNCCc3c[nH]c4ccccc34)cn(Cc3ccc(F)cc3F)c2cn1 [Example 67, 1-(2,4-Difluorobenzyl)-N-hydroxy-3-({[2-(1H-indol-3-yl)ethyl]amino}methyl)-1H-pyrrolo[2,3-c]pyridine-5-carboxamide]	15 nM	283 nM	–
